Assay results reported in publication PMC11126915, “iATPSnFR2: A high-dynamic-range fluorescent sensor for monitoring intracellular ATP” (Proceedings of the National Academy of Sciences of the …, 2024).

Experiments:
iATPSnFR2.A95A.A119L [1] = tested on: T1, iATPSnFR2.A95A.A119L; assay: Equilibrium fluorescence titration of 0.2 µM purified sensor HaloTag-JFX650 conjugate with ATP and ADP head-to-head (ex 485 nm, em 535 nm) in Mammalian Cell Imaging Buffer (20 mM HEPES, 119 mM NaCl, 2.5 mM KCl, 2 mM MgCl2, 2 mM CaCl2, pH 7.2).; settings: n = 3; read-out: Binding curve fits, in µM, for ATP and ADP (affinity)
T1 construct: epsilon subunit residues 1-109, linker 1 VLVG, cpSFGFP, linker 2 ICV, residues 110-129, C-terminal HaloTag conjugated to JFX650
Procedure: (§1) Purified protein was mixed with 1.1 molar equivalents of JFX650 HaloTag ligand and incubated at room temperature for 1 h and then at 4 °C overnight. Excess HaloTag ligand was removed by gel filtration on a PD-10 column (GE Life Sciences) and reconcentrated by ultrafiltration.
(§2) All in vitro assays were performed in Mammalian Cell Imaging Buffer unless otherwise noted. iATPSnFR2 equilibrium measurements (affinity, specificity, pH) were performed with 0.2 µM protein in a Tecan Spark fluorimeter with 20 nm bandpass windows and excitation at 485 nm and emission at 535 nm.
(§3) Supplementary Figure 1a. In vitro characterization: ATP & ADP affinity. Three variants of iATPSnFR2.HaloTag-JFX650 titrated with ATP (black) and ADP (grey), head-to-head. iATPSnFR2.S29W.A95K (left); iATPSnFR2.A95K (center); iATPSnFR2.A95A.A119L (right). Binding curve fits, in µM, for ATP and ADP are S29W.A95K: 4 µM, 400 µM. A95K: 16 µM, 780 µM.
(§4) A95A.A119L: 530 µM, 5300 µM. Error bars are s.d. of three technical replicates. […]

iATPSnFR2.A95K [2] = tested on: T2, iATPSnFR2.A95K; assay: as above; settings: n = 3; read-out: Binding curve fits, in µM, for ATP and ADP (affinity)
T2 construct: epsilon subunit residues 1-109, linker 1 VLVG, cpSFGFP, linker 2 ICV, residues 110-129, C-terminal HaloTag conjugated to JFX650
Procedure: as §1, §2, §3, §4

iATPSnFR2.S29W.A95K [3] = tested on: T3, iATPSnFR2.S29W.A95K; assay: as above; settings: n = 3; read-out: Binding curve fits, in µM, for ATP and ADP (affinity)
T3 construct: epsilon subunit residues 1-109, linker 1 VLVG, cpSFGFP, linker 2 ICV, residues 110-129, C-terminal HaloTag conjugated to JFX650
Procedure: as §1, §2, §3, §4

iATPSnFR2.A95A.A119L [4] = tested on: T1, iATPSnFR2.A95A.A119L; assay: Separate head-to-head equilibrium fluorescence titration of 0.2 µM purified sensor HaloTag-JFX650 conjugate with ATP and other nucleoside triphosphates (ex 485 nm, em 535 nm) in Mammalian Cell Imaging Buffer, pH 7.2.; settings: n = 3; read-out: Binding curve fits, in µM, for ATP, CTP, GTP (binding specificity)
Procedure: as §1, §2
(§5) [NTP], µM [NTP], µM [NTP], µM
(§6) Supplementary Figure 1d. In vitro characterization: binding specificity. iATPSnFR2 affinity for ATP
(§7) and other nucleoside triphosphates. Three variants of iATPSnFR2.HaloTag-JFX650 titrated with ATP
(§8) and other NTPs, head-to-head. S29W.A95K (left); A95K (center); A95A.A119L (right). ATP (black),
(§9) CTP (cyan), GTP (grey), TTP (purple). Binding curve fits, in µM, for ATP, CTP, GTP are S29W.A95K:
(§10) Error bars are s.d. of three technical replicates.

iATPSnFR2.A95K [5] = tested on: T2, iATPSnFR2.A95K; assay: as above; settings: n = 3; read-out: Binding curve fits, in µM, for ATP, CTP, GTP (binding specificity)
Procedure: as §1, §2, §5, §6, §7, §8, §9, §10

iATPSnFR2.S29W.A95K [6] = tested on: T3, iATPSnFR2.S29W.A95K; assay: as above; settings: n = 3; read-out: Binding curve fits, in µM, for ATP, CTP, GTP (binding specificity)
Procedure: as §1, §2, §5, §6, §7, §8, §9, §10

LMTK- cells = assay: green:red ratio imaging of fibroblasts expressing iATPSnFR2-HaloTag variants; type: cell-based, mouse; settings: 10 mM 2dOG replacing 10 mM glucose
Procedure: (§11) Rho° and the parental LMTK- cells were maintained in T-75 flasks with Dulbecco’s Modified Eagle's Medium (DMEM) + 10% Fetal Bovine Serum (FBS) + 1 mM pyruvate + 5 µM uridine. Two days prior to transfection, they were split into separate rows of a 24-well plate (half Rho°, half LMTK) at 0.6 and 0.1 million cells per well, respectively. Cells were transfected with iATPSnFR2.HaloTag variants by lipofectamine (0.5 µg DNA + 2 µL lipofectamine 2,000 per well) for 4 to 6 h in DMEM lacking FBS or antibiotics. Transfection medium was replaced with fresh DMEM + 10% FBS + penicillin/streptomycin overnight. Cells were labeled with JFX650 HaloTag ligand by adding the fluorophore to 100 nM for an hour. Cells were washed with Mammalian Cell Imaging Buffer and imaged in a Cytation 5 imaging reader (BioTek) over the course of about 2 h. After about 20 min of imaging to establish a baseline fluorescence, the culture plate was removed from the instrument, and buffer was replaced with the query buffer. The equilibration buffer contained 10 mM glucose, and the query buffers contained 10 mM 2dOG.
(§12) Images were background subtracted and aligned for movement artifacts with the Gen5 software package that controls the Cytation 5 instrument. Images were assembled as TIF stacks and imported into ImageJ. […] Those ROIs were used to determine the ratio of green to red fluorescence for each well. […]

Rho° cells = assay: as above; type: cell-based, mouse; settings: 10 mM 2dOG replacing 10 mM glucose
Procedure: as §11, §12

[7] = tested on: nerve terminals of dissociated hippocampal neurons; assay: ATP depletion in nerve terminals during AP firing; type: cell-based, Sprague-Dawley rats; settings: 5 mM glucose + 10 µM KA, 6 s at 50 Hz
Procedure: (§13) Primary neuronal cultures were prepared as previously described ([31]). Hippocampal CA1 to CA3 regions were dissected, dissociated, and plated onto poly-L-ornithine-coated coverslips. Plating media consisted of the minimal essential medium, 0.5% glucose, insulin (0.024 g/L), transferrin ([…]), GlutaMAX 1%, N-21 (2%), and fetal bovine serum (10%). After 1 to 3 days in vitro (DIV), cells were fed and maintained in media with the following modifications: cytosine β-D-arabinofuranoside (4 µM) and FBS 5%. Cultures were incubated at 37 °C in a 95% air/5% CO2 incubator. Calcium phosphate–mediated gene transfer was performed on DIV 6 to 8, and neurons were used for experiments on DIV 14 to 21.
(§14) Coverslips were loaded onto a custom chamber ([32]), mounted on a Zeiss inverted microscope and perfused at ~100 µL min^–1 with Tyrode’s solution containing: 119 mM NaCl, 2.5 mM KCl, 5 mM glucose, 50 mM HEPES, 2 mM CaCl2, 2 mM MgCl2, 50 µM DL-2-amino-5-phosphonovaleric acid (AP5), and 10 µM 6-cyano-7-nitroquinoxaline-2,3-dione (CNQX), adjusted to pH 7.4. […] Fluorescence was stimulated with OBIS 488 nm LX or OBIS 637 nm LS lasers (Coherent) passing through a laser speckle reducer (LSR 3005 at 12° diffusion angle, Optotune). […]

[8] = tested on: axonal mitochondria of primary hippocampal neurons; assay: mitochondrial matrix ATP imaging in axonal mitochondria of primary neurons; type: cell-based, Sprague-Dawley rats; settings: 10 µM, perfusion; KA in 5 mM glucose; oligomycin in 1.25 mM lactate + 1.25 mM pyruvate
From the text: iATPSnFR2.HaloTag variants were subcloned by restriction digest into an AAV vector with a CAG promoter via BglII/PstI digest from the bacterial expression vector. The pAAV.CAG vector includes an extra serine after the initial methionine and lacks a polyhistidine tag. To target the sensor to the mitochondrial matrix, four repeats of COX8(mito) leader sequence ([…]) separated by spacer (IHSLPPEGPW) were introduced at the N terminus of iAPTSnFR2(A95A/A119L). HaloTag was incorporated at the N-terminal of iATPSnFR2.A95A.A119L separated by a linker (LQSTGSGNAVGQDTQER). […]
as §14
Time series of imaging pairs (HaloTag and iATPSnFR2) were split into two independent image series using a custom-written Fiji routine to facilitate analysis. […] Synaptic boutons signals were analyzed using homemade script routines in Igor-pro v6.3.7.2 (WaveMetrics, Lake Oswego, OR, USA). […]

[9] = tested on: synaptic boutons of hippocampal neurons; assay: spontaneous ATP depletion in synaptic boutons (synaptophysin-targeted iATPSnFR2); type: cell-based, Sprague-Dawley rats; settings: 5 mM glucose + 10 µM KA + 0.3 µM TTX, iATPSnFR2.A95A.A119L.HaloTag-JFX650
Procedure: as §13, §14

Question: Which results are given for Nc1ncnc2c1ncn2[C@@H]1O[C@H](COP(=O)(O)OP(=O)(O)O)[C@@H](O)[C@H]1O [ADP, adenosine diphosphate]?
Answer: Kd (iATPSnFR2.A95A.A119L [1]): 5300 µM; Kd (iATPSnFR2.A95K [2]): 780 µM; Kd (iATPSnFR2.S29W.A95K [3]): 400 µM

Question: What does the source list for Nc1ncnc2c1ncn2[C@@H]1O[C@H](COP(=O)(O)OP(=O)(O)OP(=O)(O)O)[C@@H](O)[C@H]1O [ATP, adenosine triphosphate]?
Answer: Kd (iATPSnFR2.A95A.A119L [1]): 530 µM; Kd (iATPSnFR2.A95K [2]): 16 µM; Kd (iATPSnFR2.S29W.A95K [3]): 4 µM; Kd (iATPSnFR2.A95A.A119L [4]): 750 µM; Kd (iATPSnFR2.A95K [5]): 30 µM; Kd (iATPSnFR2.S29W.A95K [6]): 20 µM

Question: Which Kd (iATPSnFR2.A95A.A119L [4]) does the source give for Nc1ccn([C@@H]2O[C@H](COP(=O)(O)OP(=O)(O)OP(=O)(O)O)[C@@H](O)[C@H]2O)c(=O)n1 [CTP, cytidine triphosphate] here?
Answer: The Kd was about 10000 µM.

Question: What about the Kd (iATPSnFR2.A95K [5]) of the same compound?
Answer: The Kd was 100 µM.

Question: And the Kd (iATPSnFR2.S29W.A95K [6])?
Answer: The Kd was 50 µM.

Question: For O=CC[C@@H](O)[C@H](O)[C@H](O)CO [2dOG, 2-deoxyglucose], which “effect on green fluorescence of iATPSnFR2 variants” value (LMTK- cells) is on record?
Answer: The value was “decreased fluorescence only in those expressing the weakest affinity variant”.

Question: What about the “effect on green fluorescence of iATPSnFR2 variants” value (Rho° cells) of the same compound?
Answer: The value was “green fluorescence rapidly dropped”.

Question: For CC(C)[C@H]1CC[C@@]2(CO2)[C@H]2C(=O)OCC(C(=O)O)=C[C@H]12 [KA, koningic acid], which “effect on iATPSnFR2 fluorescence during AP stimulation” value [7] is on record?
Answer: The value was “even greater decrease in fluorescence that did not recover”.

Question: And the “effect on mitochondrial ATP signal (mito-iATPSnFR2.HaloTag)” value [8]?
Answer: Its value is “rapid drop in the ATP signal”.

Question: And the “effect on average green to red fluorescence ratio in boutons” value [9]?
Answer: The value was “gradually declined over a 5 to 10 min period”.

Question: For Nc1nc2c(ncn2[C@@H]2O[C@H](COP(=O)(O)OP(=O)(O)OP(=O)(O)O)[C@@H](O)[C@H]2O)c(=O)[nH]1 [GTP, guanosine triphosphate], which Kd (iATPSnFR2.A95A.A119L [4]) is on record?
Answer: The Kd was about 10000 µM.

Question: And the Kd (iATPSnFR2.A95K [5])?
Answer: The Kd was 1500 µM.

Question: And the Kd (iATPSnFR2.S29W.A95K [6])?
Answer: Its Kd is 430 µM.

Question: With CC[C@H]1/C=C/C=C/C[C@@H](C)[C@H](O)[C@@](C)(O)C(=O)[C@@H](C)[C@H](O)[C@@H](C)C(=O)[C@@H](C)[C@H](O)[C@@H](C)/C=C/C(=O)O[C@@H]2[C@H](C)[C@H](CC1)O[C@]1(CC[C@H](C)[C@H](C[C@@H](C)O)O1)[C@H]2C [oligomycin] as the compound, how does the “effect on mitochondrial ATP signal (mito-iATPSnFR2.HaloTag)” value [8] read?
Answer: The value was “further collapse of the ATP signal”.
